Experimental data: publication PMC9818021, “Targets, Mechanisms and Cytotoxicity of Half-Sandwich Ir(III) Complexes Are Modulated by Structural Modifications on the Benzazole Ancillary Ligand” (Cancers, 2022)
“Also recorded” adds a separate entry of the source.

Assays:
[1] = tested on: Calf thymus DNA; assay: Kinetics of covalent binding to DNA (UV-vis, NMR); details: for Covalent binding to DNA: UV-Vis and NMR; for kc x 103 (rate constant of covalent binding to DNA): values are kc x 103, CP/CD = 20
Method: Materials. The iridium chloride salt (IrCl3·nH2O) was purchased from Johnson Mattey. The ligands 2-phenylbenzimidazole, 2-(2′-pyridylbenzimidazole), 2-(2′-aminophenylbenzimidazole), 2-(2′-aminophenylbenzothiazole), 2-(2′-hydroxyphenylbenzimidazole) and 2-(2′-hydroxyphenylbenzothiazole) were purchased from Sigma-Aldrich. The ligands 2-phenyl-N-methyl-benzimidazole and 2-(2′-pyridyl)l-N-methyl-benzimidazole were prepared according to slightly modified reported protocols. Deuterated solvents were obtained from SDS and Euriso-top. Unless otherwise specified, all the biological reagents were purchased from Merck Life Science S.L.U., Madrid, Spain. Calf thymus DNA provided as a highly polymerized lyophilized sodium salt was dissolved into doubly-deionized water and sonicated with an MSE-Sonyprep sonicator to reduce the polymer length at approximately 1000 base-pairs. The molar DNA concentration in base pairs, ε (260 nm) = 13,200 M^−1 cm^−1 [49], will be expressed as CP. BSA was supplied as crystallized and lyophilized powder (≥98%, agarose gel electrophoresis and ≤0.005% fatty acids); the BSA concentration of the stock solutions was spectrophotometrically determined as ε (278 nm) = 45,000 M^−1 cm^−1. All aqueous solutions were prepared with MilliQ-grade water using a Direct-Q8UV system from Millipore (Millipore Ibérica S.A., Madrid, Spain). All solvents were of analytical grade. The chemical studies were carried out in aqueous solutions at 25 °C, I = 2.5 mM sodium cacodylate (NaCaC) and pH between 6.0 and 7.1 unless other conditions are stated. All buffers with the biological components were of biological grade and used as received.
The UV-vis measurements were performed with a Hewlett-Packard 8453A (Agilent Technologies, Palo Alto, CA, USA) photodiode array spectrophotometer with a Peltier temperature control system. Titrations were carried out at 25 °C by adding increasing amounts of DNA solution to the iridium complex solution. The pKa values were measured by analysing the absorbance change of iridium complex solutions recorded at different pH values. The melting experiments were carried out using a DNA solution varying the CIr-complex/CDNA (CD/CP) ratio from 0 to 1, keeping CP constant and recording the absorbance spectra while heating from 25 to 90 °C at 0.3 °C/min.
The slow kinetic measurements were performed with the previous spectrophotometer while the fast kinetic measurements were performed in a stopped flow Bio-Logic SFM-300 spectrophotometer with an absorbance detection system and dead time below 3 ms. The kinetic curves, obtained averaging out at least five shots, were analysed with the Jandel (AISN software, Mapleton, OR) fitting package.
2 - Interaction wit h DNA
Aquo- complexes bind DNA(N7) more easily than their chlorido analogous[1],[2].
complexes were incubated overnight until the aquation process i s co m ple t ed. Water-insoluble
compounds were firstly dissolved in DMSO and then diluted in water.
From the fitting of absorbance-time graphs (Figure S8 ) to a biexponential analysis, two rate
constants were obtained. The fast reaction could be related to covalent binding, being k c t he
to DNA/Ir-complex rearrangements, so it was disregarded.
0. 174 3 [ N, NH] 4 [ N, NMe ]
Figure S13. Biexponential kinetic curves of DNA with A) 3[N,NH] CD = 1.0 3×1 0-5 M, B) 4[N,NMe] CD =
M, F) 8[CO,S] C D = 9.4 0×1 0- 6 M. CP/CD = 20.
Table S10. Rate constants for the covalent binding between the complexes and DNA.
The formation of covalent DNA/Ir-complex product (PD), can be represented according to the
where P represents the polynucleotide DNA and D the Iridium -metal complexes. Henceforth, CD
and CP stand for the analytical D and P concentrations, respectively.
Nevertheless, we observed that for each complex, the kc values remained essentially constant
with the increment of CP (Figure S9 ), proving that the reaction is monomolecular. Therefore, PD […]

[2] = Qualitative solubility; format: physicochemical; details: 1-2 mg, solvent up to 1 mL
Method: Solubility. The solubility of the complexes was qualitatively assessed. Different solvents were added drop-by-drop while shaking to a small amount of complex (around 1–2 mg) in a vial until the solvent added exceeded 1 mL. Afterwards, it was checked if the solid was or not completely dissolved and/or if the solution got coloured.

[3] = tested on: Calf thymus DNA; assay: DNA viscosity measurements; format: binding; details: as a function of CD/CP, overnight incubation
Method: Viscosity measurements were performed using a Micro-Ubbelohde viscometer whose temperature was controlled externally (25 ± 0.1 °C). The flow time was measured with a digital stopwatch. Mean values of triplicated measurements were taken to evaluate the DNA viscosity in the absence (η0) and in the presence, (η) of iridium complexes. The viscosity readings were expressed as L/L0 = (η/η0)^1/3 versus the CD/CP ratio. The data was analysed using […] where t0 and tDNA are the buffer and polynucleotide solution flow times, respectively, whereas t is the flow time of the Ir-complex/DNA mixture after the stabilization period.

[4] = tested on: ROS (superoxide anion, hydrogen peroxide); assay: ROS generation (DHE and H2DCFDA, flow cytometry); format: cell-based; details: after 3 h
Method: Specific assays with 1[C,NH] complex were performed according to manufacturer’s instructions using the following reagents from Molecular Probes (Thermo Fisher Scientific): Measurements of ROS: Dihydroethidium (DHE, D11347) and 2′, 7′-dichlorodihydrofluorescein diacetate (H2DCFDA, D399); detection of caspases 3/7: CellEvent Caspase-3/7 Green Detection Reagent (C10423); Cell viability: Live/Dead Cell Imaging Kit (R37601); Analysis of cytosolic calcium concentration: Fluo3/AM (F23915); Analysis of MMP: Tetramethylrhodamine methyl ester perchlorate (TMRM, T668). RT-qPCR’s assays were performed with the following primers/probes from Thermo Fisher Scientific: DCP1A (Hs00218198-m1), FOSB (Hs00171851-m1), EGR1(Hs0015928-m1), ATF3 (Hs00231069-m1), DDIT3 (Hs00358796-g1), PP1R15A (Hs00169585-m1), CHAC1(Hs00225520-m1), MIR9-1 (Hs04231512-s1), ATP1B2 (Hs00155922-m1), BBC3 (Hs00248075-m1), BCL2L11 (Hs00798019-s1), PMAIP1 (Hs00560402-m1), SKP2 (Hs01021864-m1) and HIST1H1B (Hs00271207-s1). RT-qPCR experiments were performed as described.

SMILES	Covalent binding to DNA [1]	kc x 103 (rate constant of covalent binding to DNA) [1] [s-1]	Relative viscosity of DNA (L/L0) [3]	DHE fluorescence (superoxide anion levels) [4]	also measured
Cc1c(C)c(C)[c-](C)c1C.[Cl-].[Cl][Ir]1[NH2+]c2ccccc2-c2sc3ccccc3[n+]21 [6[CNH2,S], [(η^5-Cp*)IrCl(κ^2-N,N-apbtz)]Cl]	able to covalently bind DNA	6.4 ± 0.2			Solubility in water [2]: water-soluble
Cc1c(C)c(C)[c-](C)c1C.[Cl-].[Cl][Ir]1[n+]2ccccc2-c2[nH]c3ccccc3[n+]21 [3[N,NH], [(η^5-Cp*)IrCl(κ^2-N,N-pybim)]Cl]	able to covalently bind DNA	20 ± 2	drastically declined		Solubility in water ([2]; listed as 3[N,NH-Cl]): soluble in water; Solubility in water ([2]; listed as 3[N,NH-Cl]+): water-soluble
Cc1c(C)c(C)[c-](C)c1C.[Cl][Ir]1[O]c2ccccc2-c2sc3ccccc3[n+]21 [8[CO,S], [(η^5-Cp*)IrCl(κ^2-O,N-hpbtz)]]	able to covalently bind DNA	6.0 ± 0.2		increased	Solubility in water ([2]; listed as 8[CO,S-Cl]): insoluble in water; also recorded: soluble in DMSO, but not in water
Cc1c(C)c(C)[c-](C)c1C.Cn1c2[n+](c3ccccc31)[Ir]([Cl])[n+]1ccccc1-2.[Cl-] [4[N,NMe], [(η^5-Cp*)IrCl(κ^2-N,N-pyMebim)]Cl]	able to covalently bind DNA	16 ± 1			Solubility in water ([2]; listed as 4[N,NMe-Cl]): soluble in water; Solubility in water ([2]; listed as 4[N,NMe-Cl]+): water-soluble
Cc1c(C)c(C)[c-](C)c1C.[Cl-].[Cl][Ir]1[NH2+]c2ccccc2-c2[nH]c3ccccc3[n+]21 [5[CNH2,NH], [(η^5-Cp*)IrCl(κ^2-N,N-apbim)]Cl]	able to covalently bind DNA	3.9 ± 0.1			Solubility in water ([2]; listed as 5[CNH2,NH-Cl]): soluble in water; Solubility in water ([2]; listed as 5[CNH2,NH-Cl]+): water-soluble
Cc1c(C)c(C)[c-](C)c1C.[Cl][Ir]1[c]2ccccc2-c2[nH]c3ccccc3[n+]21 [1[C,NH], [(η^5-Cp*)IrCl(κ^2-N,C-pbim)]]	ruled out		No variations	increased	Solubility in water ([2]; listed as 1[C,NH-Cl]): insoluble in water; also recorded: soluble in DMSO, but not in water
Cc1c(C)c(C)[c-](C)c1C.Cn1c2[n+](c3ccccc31)[Ir]([Cl])[c]1ccccc1-2 [2[C,NMe], [(η^5-Cp*)IrCl(κ^2-N,C-NMepbim)]]	ruled out		No variations	increased	Solubility in water ([2]; listed as 2[C,NMe-Cl]): insoluble in water; also recorded: soluble in DMSO, but not in water
Cc1c(C)c(C)[c-](C)c1C.[Cl][Ir]1[O]c2ccccc2-c2[nH]c3ccccc3[n+]21 [7[CO,NH], [(η^5-Cp*)IrCl(κ^2-O,N-hpbim)]]	able to covalently bind DNA	3.7 ± 0.1			Solubility in water ([2]; listed as 7[CO,NH-Cl]): insoluble in water; also recorded: soluble in DMSO, but not in water
